US9751885B2, “Cyclopropanamine compound and use thereof” (Takeda Pharmaceutical Company Limited, priority 2012, dated 2017)
Where a name gives a salt, the structure may show the parent alone. Read-outs that look alike come from different tables or passages of the source.

What was measured:
[1] = Evaluation of hippocampal distribution in mouse; type: in vivo; conditions: male ICR mice, 10 mg/kg oral; for concentration at 0.5 h / Kp at 0.5 h: 0.5 hr after administration; for concentration at 1 h / Kp at 1 h: 1 hr after administration
Experimental: Evaluation of Hippocampal Distribution in Mouse
(§1) Male ICR mice (hereinafter mice) were acclimated for at least one week in a rearing facility. The mice were raised in a rearing room with controlled temperature and humidity under a 12:12 hour light-dark cycle, and allowed free ingestion of feed and water.
The compounds were suspended in 0.5% methylcellulose/0.02% citric acid/distilled water and orally administered. All compounds were administered to the mice at a dose of 10 mg/kg (body weight).
Blood samples were collected at 0.5 hr, or 1 hr, or 1.5 hr from compound administration, and the hippocampus was isolated simultaneously. The plasma concentration and hippocampus concentration of each test compound were measured by the LC/MS/MS method, the ratio (hippocampus/plasma concentration ratio) was calculated, and distribution into hippocampus was evaluated.

[2] = tested on: white blood cell number, red blood cell number, platelet number; experiment: Evaluation of blood cell number in mouse; type: in vivo; conditions: oral, Day 2 after administration
Experimental: Evaluation of Blood Cell Number in Mouse
as §1
The compounds were suspended in 0.5% methylcellulose/0.02% citric acid/distilled water and orally administered. All compounds were administered to the mice at a dose of 1 mg/kg, 10 mg/kg, 50 mg/kg or 100 mg/kg (body weight). On Day 2 after the administration of the compound, the whole blood was collected.
Using Sysmex XT-1800i (Sysmex Corporation), the white blood cell number, red blood cell number, and platelet number in the collected whole blood per unit volume were measured. The influence of each compound on each blood cell number was determined by comparing the number with the mean of each blood cell number of the mouse without administration of the compound (control group), and the numerical value of each blood cell number of a mouse with the administration of the compound is shown in percentage. percentage (%) of blood cell number of compound administration group as compared to control group=(mean blood cell number of compound administration group mean blood cell number of compound non-administration group)×100

[3] = hippocampus, read-out: hippocampus concentration (mean)
[4] = hippocampus/plasma, read-out: hippocampus/plasma concentration ratio (mean)
[5] = plasma, read-out: plasma concentration (mean)

Row | SMILES | concentration at 1.5 h ([1]; hippocampus, 1.5 hr after administration, read-out: hippocampus concentration (mean)) | Kp at 1.5 h ([1]; hippocampus/plasma, 1.5 hr after administration, read-out: hippocampus/plasma concentration ratio (mean)) | concentration at 1.5 h ([1]; plasma, 1.5 hr after administration, read-out: plasma concentration (mean)) | platelet number, percentage of compound administration group compared to control group, mean ([2]; 10 mg/kg) | red blood cell number, percentage of compound administration group compared to control group, mean ([2]; 10 mg/kg) | white blood cell number, percentage of compound administration group compared to control group, mean ([2]; 10 mg/kg) | platelet number, percentage of compound administration group compared to control group, mean ([2]; 100 mg/kg) | red blood cell number, percentage of compound administration group compared to control group, mean ([2]; 100 mg/kg) | white blood cell number, percentage of compound administration group compared to control group, mean ([2]; 100 mg/kg) | concentration at 0.5 h [1, 3] | Kp at 0.5 h [1, 4] | concentration at 0.5 h [1, 5] | concentration at 1 h [1, 3] | Kp at 1 h [1, 4] | concentration at 1 h [1, 5]
1 | Cc1nnc(NC(=O)c2cc([C@@H]3C[C@H]3NC3CCC3)ccc2F)s1 (relative stereo) [Example 183, 5-(trans-2-(cyclobutylamino)cyclopropyl)-2-fluoro-N-(5-methyl-1,3,4-thiadiazol-2-yl)benzamide dihydrochloride] | 884 ng/g | 1.35 | 651 ng/mL | 96.4% | 98.5% | 88.1% | 86.6% | 97.5% | 114.9% |  |  |  |  |  | 
2 | Cc1nnc(NC(=O)c2ccc(C)c([C@@H]3C[C@H]3NC3CCOCC3)c2)s1 (relative stereo) [Example 185, 4-methyl-N-(5-methyl-1,3,4-thiadiazol-2-yl)-3-(trans-2-(tetrahydro-2H-pyran-4-ylamino)cyclopropyl)benzamide hydrochloride] |  |  |  | 90.4% | 102.0% | 88.0% | 84.7% | 100.7% | 129.9% | 581 ng/g | 0.58 | 1020 ng/mL |  |  | 
3 | Cn1cc(NC(=O)c2cccc([C@@H]3C[C@H]3NC3CCC(F)(F)CC3)c2)cn1 (relative stereo) [Example 205, 3-(trans-2-((4,4-difluorocyclohexyl)amino)cyclopropyl)-N-(1-methyl-1H-pyrazol-4-yl)benzamide dihydrochloride] |  |  |  | 114.7% | 97.8% | 81.6% | 110.8% | 104.0% | 80.9% |  |  |  | 437 ng/g | 0.47 | 920 ng/mL
4 | Cc1cc(NC(=O)c2cccc([C@@H]3C[C@H]3NC3CCC(F)(F)CC3)c2)n(C)n1 (relative stereo) [Example 215, 3-(trans-2-((4,4-difluorocyclohexyl)amino)cyclopropyl)-N-(1,3-dimethyl-1H-pyrazol-5-yl)benzamide dihydrochloride] |  |  |  | 100.7% | 98.4% | 113.3% | 91.2% | 99.8% | 124.7% | 481 ng/g | 0.31 | 1570 ng/mL |  |  | 
5 | Cc1nnc(NC(=O)c2cc([C@@H]3C[C@H]3NC3CCC(F)(F)CC3)ccc2F)s1 (relative stereo) [Example 223, 5-(trans-2-((4,4-difluorocyclohexyl)amino)cyclopropyl)-2-fluoro-N-(5-methyl-1,3,4-thiadiazol-2-yl)benzamide dihydrochloride] |  |  |  | 94.8% | 101.2% | 114.5% | 98.9% | 100.4% | 121.7% | 2390 ng/g | 1.69 | 1400 ng/mL |  |  | 
6 | Cc1cc(NC(=O)c2cccc([C@@H]3C[C@H]3NC3CCC3)c2)no1 (relative stereo) [Example 232, 3-(trans-2-(cyclobutylamino)cyclopropyl)-N-(5-methyl-1,2-oxazol-3-yl)benzamide hydrochloride] |  |  |  | 102.4% | 100.4% | 97.3% | 93.5% | 99.3% | 92.4% |  |  |  | 572 ng/g | 3.66 | 154 ng/mL
7 | O=C(NC1CC(F)(F)C1)c1cccc([C@@H]2C[C@H]2NC2CCC(F)(F)CC2)c1 (relative stereo) [Example 234, N-(3,3-difluorocyclobutyl)-3-(trans-2-((4,4-difluorocyclohexyl)amino)cyclopropyl)benzamide hydrochloride] |  |  |  | 98.8% | 97.7% | 76.7% | 88.9% | 101.2% | 94.8% |  |  |  | 276 ng/g | 1.58 | 175 ng/mL
8 | Cc1cc(NC(=O)c2cccc([C@@H]3C[C@H]3NC3CCOCC3)c2)on1 (relative stereo) [Example 235, N-(3-methyl-1,2-oxazol-5-yl)-3-(trans-2-(tetrahydro-2H-pyran-4-ylamino)cyclopropyl)benzamide hydrochloride] |  |  |  | 99.1% | 101.1% | 75.7% | 96.6% | 97.8% | 93.0% | 216 ng/g | 1.04 | 204 ng/mL |  |  | 
9 | O=C(NC1CC(F)(F)C1)c1cc([C@@H]2C[C@H]2NCC2CC2)ccc1F (relative stereo) [Example 241, 5-(trans-2-((cyclopropylmethyl)amino)cyclopropyl)-N-(3,3-difluorocyclobutyl)-2-fluorobenzamide hydrochloride] |  |  |  | 102.6% | 96.9% | 94.6% | 89.2% | 99.0% | 101.9% | 878 ng/g | 5.31 | 167 ng/mL |  |  | 
